In US11851387B2, “Para-phenylenediamine derivative, 1,4-cyclohexyldiamine derivative, and fabricating method for 1,4-diamine cyclic compound derivative” (Yuanhan Materials Inc., priority 2021, dated 2023):

Assay: Solubility in solvent commonly used in the synthesis of polyimide (NMP, DMAc)
Assay type: physicochemical
Source text: In the following descriptions, features and effects of the present disclosure will be described more specifically with reference to some Embodiments and some Comparative Examples. It is noted that without exceeding the scope of the present disclosure, the materials used, their amount and ratio, processing details, processing flow, etc. can be appropriately alternated. Therefore, the present disclosure should not be interpreted restrictively by the Embodiments provided below. Specifically, each Comparative Example and each Embodiment are thoroughly mixed with solvent commonly used in the synthesis of polyimide (e.g., N-methylpyrrolidone (NMP) and dimethylacetamide (DMAc)), and the solubility of each Comparative Example and each Embodiment in the solvent is measured, so as to verify the efficacy of the present disclosure. The detailed description and the measurement results of the solubility of each Comparative Example and each Embodiment are shown in Table 1.

Solubility (g/100 g solvent) (solvent DMAc, dissolution temperature 70° C.) | Compound | Solubility (g/100 g solvent) (solvent NMP, dissolution temperature 50° C.)
– | Nc1ccc(N)cc1 [Comparative Example 1, para-phenylenediamine] | 4.1
5.7 | NC1CCC(N)CC1 (centres unmarked) [Comparative Example 2, 1,4-cyclohexanediamine] | –
